Data as given in patent US20260109712A1, “RIFAMYCINS FOR NONTUBERCULOUS MYCOBACTERIA” (priority 2022, published 2026).
Converted amounts (≈) assume the structure as drawn. Read-outs that look alike come from different tables or passages of the source.

What was measured:
Δarr M. abscessus = assay: MIC assay, isogenic arr-deleted strain; type: cell-based, Mycobacterium abscessus; settings: for MICΔorr: Table 10
Method in brief: (§1)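 Two-fold, ten-point dilutions in 7H9 with 2% DMSO; mid-log culture diluted to OD600=0.1 (1×10^7 CFU/mL). Incubated 3 days at 37 °C, shaking 110 RPM; growth = Day 3 minus Day 0 OD600, expressed as percentage of drug-free growth and plotted against concentration. Two biological replicates.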

[1] = tested on: M. abscessus subsp. abscessus K21; assay: MIC assay, clinical isolate K21; type: cell-based, Mycobacterium abscessus; settings: 90% inhibition of bacterial growth
M. abscessus Bamboo [2] = assay: Caseum surrogate MBC90 (cMBC90) kill assay; type: cell-based, Mycobacterium abscessus
Description: (§2) The surrogate matrix was generated as described previously from cultured THP-1 cells (ATCC TIB-202) (mBio, 2023, 14, e0059823). M. abscessus exponential cultures grown in Middlebrook 7H9 broth (Sigma Aldrich) (OD600 0.6-0.9) were spun down and resuspended in water to an OD600 of 7, 0.7, and 0.07. As described for the M. tuberculosis caseum surrogate assay (mnBio, 2023, 14, e0059823), the bacterial suspensions (at three different dilutions resulting in ˜10^9, 10^8, and 10^7 starting CFU/mL, represented by circle, square, and triangle indicators respectively) were added to the caseum surrogate in the ratio 2:1 (vol/wt), briefly homogenized with 1.4-mm zirconia beads, divided evenly into nine 1.5-mL microcentrifuge tubes, and incubated as standing cultures at 37° C. At the indicated time points, tubes were removed and used for CFU enumeration by plating on Middlebrook 7H11 agar (Sigma Aldrich). Separate tubes were used at each time point. To determine the kill curves, cultures with a starting CFU/mL of 10^8 were used (resulting in the middle curve with square indicators). Arrows indicate the time points when drugs were added and the end of the treatment. The experiment was repeated three times independently, yielding similar results. A representative example is shown. Dots and error bars represent means and standard deviations of three technical replicates, respectively.
FIGS. 29A-29M show the Dose-response kill curves against M. abscessus Bamboo in caseum surrogate. M. abscessus cultures were set up as described in the legend of FIG. 28. Bacterial cell suspensions were added to yield a starting CFU of 10^8/mL (FIG. 28, middle growth curve with square indicators). […] The shaded areas indicate drug concentration windows achieved in caseum in vivo. (Antimicrob. Agents Chemother., 2021, 65, e0050621; Antimicrob. Agents Chemother., 2022, 66, e0221221; PLoS Med., 2019, 16, e1002773; ACS Infect. Dis., 2016, 2, 251-267). The experiment was repeated twice independently, yielding similar results. A representative example is shown. Dots and error bars represent means and standard deviations of three technical replicates, respectively. Horizontal dotted lines indicate the cutoff for 1 log reduction in CFU compared to 10-day drug-free control culture. The cMBC90 values shown in Table 16 are the drug concentrations that reduce CFU by 90% relative to the CFU of drug-free controls at day 10. Since the cultures were in the stationary phase on day 5 when drug treatment started, the CFUs of the drug-free cultures at day 10 were similar to the CFUs of the drug-free cultures at day 5 (FIG. 28).
as §2, with “(doi: 10.1128/mbio.00598-23).” for “(mBio, 2023, 14, e0059823).”, “(doi: 10.1128/mbio.00598-23),” for “(mnBio, 2023, 14, e0059823),”, “CFU/mL)” for “CFU/mL, represented by circle, square, and triangle indicators respectively)”, “curves for the drugs,” for “curves,”, “used.” for “used (resulting in the middle curve with square indicators). Arrows indicate the time points when drugs were added and the end of the treatment.”, “results.” for “results. A representative example is shown. Dots and error bars represent means and standard deviations of three technical replicates, respectively.”
The experiment was repeated twice independently, yielding similar results. A representative example is shown. The cMBC90 values shown in Table 16 are the drug concentrations that reduce CFU by 90% relative to the CFU of drug-free controls at day 10. […]

RFB-R1 M. abscessus = assay: microbe, parasite or virus in culture; type: cell-based, Mycobacterium abscessus
M. abscessus Bamboo [3] = assay: MIC assay, clinical isolate Bamboo; type: cell-based, Mycobacterium abscessus
M. abscessus ATCC 19977 = assay: MIC assay in 96-well plate format, wild-type strain; type: cell-based, Mycobacterium abscessus; settings: for MICWT: Table 10
Method in brief: as §1

M. abscessus Bamboo [4] = assay: Broth MBC90 (bMBC90); type: cell-based, Mycobacterium abscessus; settings: broth, 5 days
Description: Broth MIC, broth MBC90 (bMBC90), and caseum surrogate MBC90 ([…]) of clinically used antibiotics and of novel ADP-ribosylation-resistant rifabutin analogs against M. abscessus Bamboo have been evaluated.

CYP3A4 = settings: human, 10 μM
Method: The threshold cycle (CT) was measured for each isoform cDNA by real time qRT-PCR. The mRNA level of each isoform was assessed by the relative quantifiation with reference gene (GAPDH) as the normalizer method. The normalized fold induction was calculated by 2^−ΔΔCT method, in which 0.1% DMSO was used as the reference (vehicle control). The induction potential of each test compound was analyzed by comparing its fold induction to a pre-determined cutoff value for each lot of hepatocytes. The hepatocytes lots used in this study were validated using 10 known inducers and 5 known non-inducers for each isozyme. A cutoff value is determined based on the validation study for each hepatocytes lot.

Mycobacterium abscessus = assay: MIC against Mycobacterium abscessus (strain not given); type: cell-based
THP-1 = assay: Fold-killing in THP-1; type: cell-based; settings: expressed in log-10 scale
Mab ATCC 19977 (Smooth) = assay: Acute Mab mouse infection model (GM-CSF knockout mice); type: in vivo; settings: 25 mg/kg every day for 7 days
Method: In vivo efficacy of compounds UMN22 and UMN34 were evaluated in acute Mab mouse infection model.

[5] = Plasma protein binding assay (rapid equilibrium dialysis); type: in vitro ADME; settings: plasma
Method in brief: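 Plasma was spiked to 10,000 ng/mL compound and dialysed against PBS by rapid equilibrium dialysis for 4 h at 37° C with shaking at 300 RPM. Plasma and buffer aliquots were matrix-matched 1:1 […] and quantified by LC-MS/MS.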

[6] = Mouse pharmacokinetics studies; type: in vivo, CD-1 mice; settings: for ƒAUC/MIC: Table 20; for F / Vd / clearance: female, CD-1, mouse, in vivo
Method: Blood was captured in CB300 blood collection tubes containing K2EDTA and stored on ice. Plasma was recovered after centrifugation and stored at −80° C. until analyzed by high pressure liquid chromatography coupled to tandem mass spectrometry (LC-MS/MS). Pharmacokinetic parameters were calculated using non-compartmental pharmacokinetic analysis. […] Extracts were vortexed for 5 minutes and centrifuged at 4000 RPM for 5 minutes. 75 μL of supernatant was transferred for LC-MS/MS analysis and diluted with 75 μL of Milli-Q deionized water. Rifabutin was purchased from Carbosynth. C25-desacetyl rifabutin and rifabutin-d7 were purchased from Toronto Research Chemical. Verapamil was purchased from Sigma-Aldrich. […] Multiple-reaction monitoring of parent/daughter transitions in electrospray positive-ionization mode was used to quantify all analytes. […] Data processing was performed using Analyst software (version 1.6.2; Applied Biosystems Sciex).

[7] = 90% inhibition of bacterial growth
[8] = Mycobacteroides abscessus, 72 h, Table 22, read-out: MICMab
[9] = Mycobacteroides abscessus, against Mycobacterium abscessus, Table 19, read-out: MIC
[10] = against Mycobacterium abscessus, Table 20, read-out: MIC

With CO[C@H]1/C=C/O[C@@]2(C)Oc3c(C)c(O)c4c(c3C2=O)C2=NC3(CCN(CC(C)C)CC3)NC2=C(NC(=O)/C(C)=C/C=C/[C@H](C)[C@H](O)[C@@H](C)[C@@H](O)[C@@H](C)[C@H](OC(=O)c2ccccc2)[C@@H]1C)C4=O [5a, 25-O-benzoyl rifabutin] the “Δarr Mab MIC” value (Δarr M. abscessus; arr-deleted strain, 90% growth inhibition) was 0.06 µM, the “Mab K21 MIC” value [1] was 0.098 µM and the cMBC90/bMBC90 (M. abscessus Bamboo [2]; 5-day assays) was 26.7. The MBC (M. abscessus Bamboo [2]; caseum surrogate, 5 days, 90% CFU reduction vs drug-free control, read-out: cMBC90) was 8 µM (≈ 7.27 µg/mL), the “activity against rifamycin-resistant mutant RFB-R1” value (RFB-R1 M. abscessus; RNAP point mutation) was “lost detectable activity” and the “RFB-R1 M. abscessus MIC” value (RFB-R1 M. abscessus; rpoB H447Y mutant, 90% inhibition) was greater than 100 µM. The “Mab Bamboo MIC” value (M. abscessus Bamboo [3]; [7]) was 0.065 µM, the MIC (M. abscessus Bamboo [3]; broth, M. abscessus Bamboo, Table 16, read-out: MIC) was 0.07 µM (≈ 0.0636 µg/mL) and the “Mab 19977 MIC” value (M. abscessus ATCC 19977; [7]) was 0.053 µM. It also gave an MIC (M. abscessus ATCC 19977; M. abscessus ATCC 19977, 90% growth inhibition, read-out: WT Mab MIC) of 0.053 µM (≈ 0.0482 µg/mL), an MIC ratio (M. abscessus ATCC 19977; WT MIC/Δarr strain MIC) of 0.9 and an MBC (M. abscessus Bamboo [4]) of 0.30 µM (≈ 0.273 µg/mL).

With CO[C@H]1/C=C/O[C@@]2(C)Oc3c(C)c(O)c4c(c3C2=O)C2=NC3(CCN(CC(C)C)CC3)NC2=C(NC(=O)/C(C)=C/C=C/[C@H](C)[C@H](O)[C@@H](C)[C@@H](O)[C@@H](C)[C@H](OC(=O)c2cccnc2)[C@@H]1C)C4=O [UMN22] the “CYP3A4 gene fold-induction at 10 μM” value (CYP3A4) was 14.1, the MICΔorr (Δarr M. abscessus) was 0.027 µM and the MIC (Mycobacterium abscessus; [8]) was 0.025 µM (≈ 0.0228 µg/mL). For the same molecule, the MIC (Mycobacterium abscessus; [9]) was 0.025 µM (≈ 0.0228 µg/mL), the MIC (Mycobacterium abscessus; [10]) was 0.025 µM (≈ 0.0228 µg/mL) and the “Fold-killing in THP-1” value (THP-1) was 3.8. For the same molecule, the MICWT (M. abscessus ATCC 19977) was 0.025 µM, the “reduction in lung CFU burden vs RFB and untreated groups” value (Mab ATCC 19977 (Smooth)) was roughly 2 log10 and the “plasma unbound (ƒu, %)” value ([5]; 4 h, 10000 ng/mL) was 2.0%. The ƒAUC/MIC [6] was 45.0, the F [6] was 78% and the Vd [6] was 1.6 L/kg. The clearance [6] was 3 mL/min/kg.

With COc1ccccc1NC(=O)O[C@H]1[C@H](C)[C@H](O)[C@H](C)[C@@H](O)[C@@H](C)/C=C/C=C(\C)C(=O)NC2=C3NC4(CCN(CC(C)C)CC4)N=C3c3c(c(O)c(C)c4c3C(=O)[C@@](C)(O/C=C/[C@H](OC)[C@H]1C)O4)C2=O [UMN34] the MICΔorr (Δarr M. abscessus) was 0.014 µM, the MIC (Mycobacterium abscessus; [10]) was 0.015 µM (≈ 0.0143 µg/mL) and the “Fold-killing in THP-1” value (THP-1) was 4.9. The MICWT (M. abscessus ATCC 19977) was 0.015 µM, the “reduction in lung CFU burden vs RFB and untreated groups” value (Mab ATCC 19977 (Smooth)) was roughly 2 log10 and the “plasma unbound (ƒu, %)” value [5] was 0.12%. It also gave a plasma unbound fraction [5] of 0.12% and a ƒAUC/MIC [6] of 0.9.

For CO[C@H]1/C=C/O[C@@]2(C)Oc3c(C)c(O)c4c(c3C2=O)C2=NC3(CCN(CC(C)C)CC3)NC2=C(NC(=O)/C(C)=C/C=C/[C@H](C)[C@H](O)[C@@H](C)[C@@H](O)[C@@H](C)[C@H](OC(=O)c2cncnc2)[C@@H]1C)C4=O [UMN46], the “CYP3A4 gene fold-induction at 10 μM” value (CYP3A4) was 7.9, the MICΔorr (Δarr M. abscessus) was 0.025 µM and the MIC (Mycobacterium abscessus; [8]) was 0.018 µM (≈ 0.0164 µg/mL). The MIC (Mycobacterium abscessus; [9]) was 0.018 µM (≈ 0.0164 µg/mL), the MIC (Mycobacterium abscessus; [10]) was 0.018 µM (≈ 0.0164 µg/mL) and the “Fold-killing in THP-1” value (THP-1) was 4.4. For the same molecule, the MICWT (M. abscessus ATCC 19977) was 0.018 µM, the “plasma unbound (ƒu, %)” value ([5]; 4 h, 10000 ng/mL) was 4.7% and the ƒAUC/MIC [6] was 87.8. The F [6] was 86%, the Vd [6] was 2.1 L/kg and the clearance [6] was 4 mL/min/kg.
